Assay results as given in PMC6639057 (Investigational new drugs, 2018).
“And” between values parts separate entries of the source, which are not always exact repeats. Equal values may be shown once.

System: patients with advanced solid tumors
Assay: Adverse events
[1] = all patients, dose escalation and dose expansion (N = 105)
[2] = escalation 30 mg + G-CSF (n = 6)
[3] = escalation 35 mg + G-CSF (n = 3)

With `Cc1csc(-c2nnc(Nc3ccc(Oc4ncccc4-c4ccnc(N)n4)cc3)c3ccccc23)c1` [AMG 900] the “AEs leading to discontinuation of AMG 900” value (from here on “AEs leading”) (Total (N = 105)) was 25 (24) n (%), the “All treatment-emergent AEs” value (Total (N = 105)) was 105 (100) n (%) and the “All treatment-related AEs” value (Total (N = 105)) was 98 (93) n (%). The “Fatal AEs” value (Total (N = 105)) was 5 (5) n (%), the “Grade ≥ 3 AEs” value (Total (N = 105)) was 79 (75) n (%) and the “Grade ≥ 3 treatment-related AEs” value (Total (N = 105)) was 61 (58) n (%). For the same compound, the “Grade ≥ 3 treatment-related AEs: Anemia” value (Total (N = 105)) was 24 (23) n (%), the “Grade ≥ 3 treatment-related AEs: Diarrhea” value (Total (N = 105)) was 4 (4) n (%) and the “Grade ≥ 3 treatment-related AEs: Fatigue” value (Total (N = 105)) was 5 (5) n (%). The “Grade ≥ 3 treatment-related AEs: Febrile neutropenia” value (Total (N = 105)) was 10 (10) n (%), the “Grade ≥ 3 treatment-related AEs: Hemoglobin decreased” value (Total (N = 105)) was 4 (4) n (%) and the “Grade ≥ 3 treatment-related AEs: Leukopenia” value (Total (N = 105)) was 15 (14) n (%). The “Grade ≥ 3 treatment-related AEs: Lymphopenia” value (Total (N = 105)) was 4 (4) n (%), the “Grade ≥ 3 treatment-related AEs: Nausea” value (Total (N = 105)) was 3 (3) n (%) and the “Grade ≥ 3 treatment-related AEs: Neutropenia” value (Total (N = 105)) was 44 (42) n (%). For the same compound, the “Grade ≥ 3 treatment-related AEs: Thrombocytopenia” value (Total (N = 105)) was 13 (12) n (%), the “Grade ≥ 3 treatment-related AEs: Vomiting” value (Total (N = 105)) was 2 (2) n (%) and the “Grade ≥ 3 treatment-related AEs: White blood cell count decreased” value (Total (N = 105)) was 2 (2) n (%). The “Grade ≥ 4 AEs” value (Total (N = 105)) was 40 (38) n (%), the “Serious AEs” value (Total (N = 105)) was 39 (37) n (%) and the “Treatment-related AEs that led to discontinuation of AMG 900” value (all patients (13 patients)) was 12%. The “Treatment-related grade ≥ 4 AEs” value (all patients (31 patients)) was 30%, the “Dose reductions or interruptions due to AEs” value (all patients (47 patients)) was 45% and the “Dose reductions or interruptions” value (all patients (51 patients)) was 49%. For the same compound, the “Treatment-related grade ≥ 3 AEs” value (all patients (61 patients)) was 58%, the “Fatal AEs” value (all patients (five patients)) was 5% and the “Grade ≥ 4 diarrhea (only nonhematologic grade ≥ 4 AE)” value (all patients (n = 1)) was 1%. For the same compound, the “Treatment-related grade ≥ 4 leukopenia” value (all patients (n = 12)) was 11%, the “Discontinuation of AMG 900 due to AEs” value (all patients (n = 25), data cutoff December 31, 2014) was 24% and the “Treatment-related grade ≥ 4 neutropenia” value (all patients (n = 30)) was 29%. The “Grade ≥ 3 treatment-related anemia” value [1] was 23%, the “Grade ≥ 3 treatment-related leukopenia” value [1] was 14% and the “Grade ≥ 3 treatment-related neutropenia” value [1] was 37% and 42%. For the same compound, the “Grade ≥ 3 treatment-related thrombocytopenia” value [1] was 12%, the “Relation of fatal AEs to treatment” value (as judged by the investigator) was “none of the fatal AEs were considered treatment related” and the “AEs leading” value (escalation 16 mg (n = 3)) was 0 n (%). For the same compound, the “All treatment-emergent AEs” value (escalation 16 mg (n = 3)) was 3 (100) n (%), the “All treatment-related AEs” value (escalation 16 mg (n = 3)) was 3 (100) n (%) and the “Fatal AEs” value (escalation 16 mg (n = 3)) was 0 n (%). The “Grade ≥ 3 AEs” value (escalation 16 mg (n = 3)) was 1 (33) n (%), the “Grade ≥ 3 treatment-related AEs” value (escalation 16 mg (n = 3)) was 1 (33) n (%) and the “Grade ≥ 3 treatment-related AEs: Anemia” value (escalation 16 mg (n = 3)) was 1 (33) n (%). The “Grade ≥ 3 treatment-related AEs: Diarrhea” value (escalation 16 mg (n = 3)) was 0 n (%), the “Grade ≥ 3 treatment-related AEs: Fatigue” value (escalation 16 mg (n = 3)) was 0 n (%) and the “Grade ≥ 3 treatment-related AEs: Febrile neutropenia” value (escalation 16 mg (n = 3)) was 0 n (%). The “Grade ≥ 3 treatment-related AEs: Hemoglobin decreased” value (escalation 16 mg (n = 3)) was 0 n (%), the “Grade ≥ 3 treatment-related AEs: Leukopenia” value (escalation 16 mg (n = 3)) was 1 (33) n (%) and the “Grade ≥ 3 treatment-related AEs: Lymphopenia” value (escalation 16 mg (n = 3)) was 0 n (%). For the same compound, the “Grade ≥ 3 treatment-related AEs: Nausea” value (escalation 16 mg (n = 3)) was 0 n (%), the “Grade ≥ 3 treatment-related AEs: Neutropenia” value (escalation 16 mg (n = 3)) was 1 (33) n (%) and the “Grade ≥ 3 treatment-related AEs: Thrombocytopenia” value (escalation 16 mg (n = 3)) was 0 n (%). The “Grade ≥ 3 treatment-related AEs: Vomiting” value (escalation 16 mg (n = 3)) was 0 n (%), the “Grade ≥ 3 treatment-related AEs: White blood cell count decreased” value (escalation 16 mg (n = 3)) was 0 n (%) and the “Grade ≥ 4 AEs” value (escalation 16 mg (n = 3)) was 1 (33) n (%). The “Serious AEs” value (escalation 16 mg (n = 3)) was 0 n (%), the “AEs leading” value (escalation 24 mg (n = 6)) was 1 (17) n (%) and the “All treatment-emergent AEs” value (escalation 24 mg (n = 6)) was 6 (100) n (%). For the same compound, the “All treatment-related AEs” value (escalation 24 mg (n = 6)) was 5 (83) n (%), the “Fatal AEs” value (escalation 24 mg (n = 6)) was 0 n (%) and the “Grade ≥ 3 AEs” value (escalation 24 mg (n = 6)) was 5 (83) n (%). The “Grade ≥ 3 treatment-related AEs” value (escalation 24 mg (n = 6)) was 5 (83) n (%), the “Grade ≥ 3 treatment-related AEs: Anemia” value (escalation 24 mg (n = 6)) was 0 n (%) and the “Grade ≥ 3 treatment-related AEs: Diarrhea” value (escalation 24 mg (n = 6)) was 0 n (%). For the same compound, the “Grade ≥ 3 treatment-related AEs: Fatigue” value (escalation 24 mg (n = 6)) was 0 n (%), the “Grade ≥ 3 treatment-related AEs: Febrile neutropenia” value (escalation 24 mg (n = 6)) was 0 n (%) and the “Grade ≥ 3 treatment-related AEs: Hemoglobin decreased” value (escalation 24 mg (n = 6)) was 0 n (%). For the same compound, the “Grade ≥ 3 treatment-related AEs: Leukopenia” value (escalation 24 mg (n = 6)) was 2 (33) n (%), the “Grade ≥ 3 treatment-related AEs: Lymphopenia” value (escalation 24 mg (n = 6)) was 1 (17) n (%) and the “Grade ≥ 3 treatment-related AEs: Nausea” value (escalation 24 mg (n = 6)) was 0 n (%). The “Grade ≥ 3 treatment-related AEs: Neutropenia” value (escalation 24 mg (n = 6)) was 4 (67) n (%), the “Grade ≥ 3 treatment-related AEs: Thrombocytopenia” value (escalation 24 mg (n = 6)) was 0 n (%) and the “Grade ≥ 3 treatment-related AEs: Vomiting” value (escalation 24 mg (n = 6)) was 0 n (%). The “Grade ≥ 3 treatment-related AEs: White blood cell count decreased” value (escalation 24 mg (n = 6)) was 0 n (%), the “Grade ≥ 4 AEs” value (escalation 24 mg (n = 6)) was 3 (50) n (%) and the “Serious AEs” value (escalation 24 mg (n = 6)) was 1 (17) n (%). For the same compound, the “AEs leading” value (escalation 25 mg (n = 7)) was 2 (29) n (%), the “All treatment-emergent AEs” value (escalation 25 mg (n = 7)) was 7 (100) n (%) and the “All treatment-related AEs” value (escalation 25 mg (n = 7)) was 5 (71) n (%). For the same compound, the “Fatal AEs” value (escalation 25 mg (n = 7)) was 1 (14) n (%), the “Grade ≥ 3 AEs” value (escalation 25 mg (n = 7)) was 3 (43) n (%) and the “Grade ≥ 3 treatment-related AEs” value (escalation 25 mg (n = 7)) was 2 (29) n (%). For the same compound, the “Grade ≥ 3 treatment-related AEs: Anemia” value (escalation 25 mg (n = 7)) was 2 (29) n (%), the “Grade ≥ 3 treatment-related AEs: Diarrhea” value (escalation 25 mg (n = 7)) was 0 n (%) and the “Grade ≥ 3 treatment-related AEs: Fatigue” value (escalation 25 mg (n = 7)) was 0 n (%). For the same compound, the “Grade ≥ 3 treatment-related AEs: Febrile neutropenia” value (escalation 25 mg (n = 7)) was 0 n (%), the “Grade ≥ 3 treatment-related AEs: Hemoglobin decreased” value (escalation 25 mg (n = 7)) was 1 (14) n (%) and the “Grade ≥ 3 treatment-related AEs: Leukopenia” value (escalation 25 mg (n = 7)) was 1 (14) n (%). For the same compound, the “Grade ≥ 3 treatment-related AEs: Lymphopenia” value (escalation 25 mg (n = 7)) was 0 n (%), the “Grade ≥ 3 treatment-related AEs: Nausea” value (escalation 25 mg (n = 7)) was 0 n (%) and the “Grade ≥ 3 treatment-related AEs: Neutropenia” value (escalation 25 mg (n = 7)) was 1 (14) n (%). The “Grade ≥ 3 treatment-related AEs: Thrombocytopenia” value (escalation 25 mg (n = 7)) was 0 n (%), the “Grade ≥ 3 treatment-related AEs: Vomiting” value (escalation 25 mg (n = 7)) was 0 n (%) and the “Grade ≥ 3 treatment-related AEs: White blood cell count decreased” value (escalation 25 mg (n = 7)) was 0 n (%). The “Grade ≥ 4 AEs” value (escalation 25 mg (n = 7)) was 2 (29) n (%), the “Serious AEs” value (escalation 25 mg (n = 7)) was 1 (14) n (%) and the “AEs leading” value (escalation 30 mg (n = 6)) was 4 (67) n (%). The “All treatment-emergent AEs” value (escalation 30 mg (n = 6)) was 6 (100) n (%), the “All treatment-related AEs” value (escalation 30 mg (n = 6)) was 6 (100) n (%) and the “Fatal AEs” value (escalation 30 mg (n = 6)) was 0 n (%). The “Grade ≥ 3 AEs” value (escalation 30 mg (n = 6)) was 6 (100) n (%), the “Grade ≥ 3 treatment-related AEs” value (escalation 30 mg (n = 6)) was 4 (67) n (%) and the “Grade ≥ 3 treatment-related AEs: Anemia” value (escalation 30 mg (n = 6)) was 0 n (%). For the same compound, the “Grade ≥ 3 treatment-related AEs: Diarrhea” value (escalation 30 mg (n = 6)) was 0 n (%), the “Grade ≥ 3 treatment-related AEs: Fatigue” value (escalation 30 mg (n = 6)) was 0 n (%) and the “Grade ≥ 3 treatment-related AEs: Febrile neutropenia” value (escalation 30 mg (n = 6)) was 0 n (%). For the same compound, the “Grade ≥ 3 treatment-related AEs: Hemoglobin decreased” value (escalation 30 mg (n = 6)) was 0 n (%), the “Grade ≥ 3 treatment-related AEs: Leukopenia” value (escalation 30 mg (n = 6)) was 3 (50) n (%) and the “Grade ≥ 3 treatment-related AEs: Lymphopenia” value (escalation 30 mg (n = 6)) was 0 n (%). For the same compound, the “Grade ≥ 3 treatment-related AEs: Nausea” value (escalation 30 mg (n = 6)) was 0 n (%), the “Grade ≥ 3 treatment-related AEs: Neutropenia” value (escalation 30 mg (n = 6)) was 4 (67) n (%) and the “Grade ≥ 3 treatment-related AEs: Thrombocytopenia” value (escalation 30 mg (n = 6)) was 1 (17) n (%). For the same compound, the “Grade ≥ 3 treatment-related AEs: Vomiting” value (escalation 30 mg (n = 6)) was 0 n (%), the “Grade ≥ 3 treatment-related AEs: White blood cell count decreased” value (escalation 30 mg (n = 6)) was 0 n (%) and the “Grade ≥ 4 AEs” value (escalation 30 mg (n = 6)) was 6 (100) n (%). For the same compound, the “Serious AEs” value (escalation 30 mg (n = 6)) was 3 (50) n (%), the “AEs leading” value [2] was 1 (17) n (%) and the “All treatment-emergent AEs” value [2] was 6 (100) n (%). The “All treatment-related AEs” value [2] was 6 (100) n (%), the “Fatal AEs” value [2] was 0 n (%) and the “Grade ≥ 3 AEs” value [2] was 5 (83) n (%). For the same compound, the “Grade ≥ 3 treatment-related AEs” value [2] was 3 (50) n (%), the “Grade ≥ 3 treatment-related AEs: Anemia” value [2] was 1 (17) n (%) and the “Grade ≥ 3 treatment-related AEs: Diarrhea” value [2] was 0 n (%). The “Grade ≥ 3 treatment-related AEs: Fatigue” value [2] was 0 n (%), the “Grade ≥ 3 treatment-related AEs: Febrile neutropenia” value [2] was 0 n (%) and the “Grade ≥ 3 treatment-related AEs: Hemoglobin decreased” value [2] was 0 n (%). The “Grade ≥ 3 treatment-related AEs: Leukopenia” value [2] was 2 (33) n (%), the “Grade ≥ 3 treatment-related AEs: Lymphopenia” value [2] was 0 n (%) and the “Grade ≥ 3 treatment-related AEs: Nausea” value [2] was 0 n (%). For the same compound, the “Grade ≥ 3 treatment-related AEs: Neutropenia” value [2] was 3 (50) n (%), the “Grade ≥ 3 treatment-related AEs: Thrombocytopenia” value [2] was 2 (33) n (%) and the “Grade ≥ 3 treatment-related AEs: Vomiting” value [2] was 0 n (%). The “Grade ≥ 3 treatment-related AEs: White blood cell count decreased” value [2] was 0 n (%), the “Grade ≥ 4 AEs” value [2] was 2 (33) n (%) and the “Serious AEs” value [2] was 3 (50) n (%). The “AEs leading” value [3] was 0 n (%) and the “All treatment-emergent AEs” value [3] was 3 (100) n (%).
